Reference: BindingDB's records for doi:10.1016/j.bmc.2009.07.009 (Universita Degli Studi Di Milano, 2009)

Molecular target: XIAP (Homo sapiens)
Assay: Fluorescence polarization was measured on an Ultra plate reader (Tecan) at excitation and emission wavelengths of 485 and 530 nm, respectively. The equilibrium binding curves were drawn by plotting millipolarization units (mP) as a function of recombinant XIAP concentration. All experiments were performed in black, flat-bottomed, 96-well mic
Conditions: pH 7.5

IC50 [nM]	Compound
250	CC[C@H](N)C(=O)N[C@@H]1C(=O)N2[C@@H](CC[C@@H]1CCN)CC[C@H]2C(=O)NC(c1ccccc1)c1ccccc1 [(3S,6S,7R,9aS)-6-[(2S)-2-aminobutanamido]-7-(2-aminoethyl)-N-(diphenylmethyl)-5-oxo-octahydro-1H-pyrrolo[1,2-a]azepine-3-carboxamide]
600	CC[C@H](N)C(=O)N[C@@H]1C(=O)N2[C@@H](CC[C@@H]1COC(=O)c1ccccc1)CC[C@H]2C(=O)NC(c1ccccc1)c1ccccc1 [1-aza-2-oxobicyclo[5.3.0]decane scaffold, 12b]
